According to US7674887B2, “Thrombopoietin mimetics” (GlaxoSmithKline LLC, priority 2000, dated 2010):

Assays:
human UT7TPO cell line = experiment: Proliferation assay using the human UT7TPO cell line; assay type: cell-based; settings: UT7TPO cells
From the text: Proliferation Assay Some of the more preferred compounds of this invention were active in an in vitro proliferation assay using the human UT7TPO cell line. UT7TPO cells are a human megakaryoblastic cell line that express Tpo-R, whose survival and growth is dependent on the presence of TPO (Komatsu et al. Blood 1996, 87,4552).

| SMILES | melting point | EC50 (human UT7TPO cell line; Homo sapiens, UT7/TPO) [µM] | activity relative to TPO in the proliferation assay (human UT7TPO cell line) [% TPO] |
| --- | --- | --- | --- |
| CC1=NN(c2ccc(C(C)(C)C)cc2)C(=O)C1=NNc1cccc(-c2cccc(C(=O)O)c2)c1O (hydrate or solvate) [Example 4, 3′-{N′-[1-(4-tert-butylphenyl)-3-methyl-5-oxo-1,5-dihydropyrazol-4-ylidene]hydrazino}-2′-hydroxybiphenyl-3-carboxylic acid] | 145 °C (dec.) | – | – |
| CC1=NN(c2ccc(C)c(C)c2)C(=O)C1=NNc1cccc(-c2cccc(C(=O)O)c2)c1O [Example 3, 3′-{N′-[1-(3,4-dimethylphenyl)-3-methyl-5-oxo-1,5-dihydropyrazol-4-ylidene]hydrazino}-2′-hydroxybiphenyl-3-carboxylic acid] | – | 0.03 | 100 |
| CC1=NN(c2ccc(C)c(C)c2)C(=O)C1=NNc1ccc(-c2ccc(C(=O)O)cc2)cc1O (hydrate or solvate) [Example 1, 4′-{N′-[1-(3,4-dimethylphenyl)-3-methyl-5-oxo-1,5-dihydropyrazol-4-ylidene]hydrazino}-3′-hydroxybiphenyl-4-carboxylic acid] | 280 °C (dec.) | – | – |
| CC1=NN(c2ccc(C)c(C)c2)C(=O)C1=NNc1ccc(-c2cccc(C(=O)O)c2)cc1O [Example 2, 4′-{N′-[1-(3,4-dimethylphenyl)-3-methyl-5-oxo-1,5-dihydropyrazol-4-ylidene]hydrazino}-3′-hydroxybiphenyl-3-carboxylic acid] | 282 °C (dec.) | – | – |
| Cc1ccc(N2N=C(Cl)C(=NNc3cccc(-c4cccc(C(=O)O)c4)c3O)C2=O)cc1C [Example 24, 3′-{N′-[3-Chloro-1-(3,4-dimethylphenyl)-5-oxo-1,5-dihydropyrazol-4-ylidene]hydrazino}-2′-hydroxybiphenyl-3-carboxylic acid] | 210 °C (dec.) | – | – |
